Patent US20150018566A1, “TUBULIN BINDING AGENTS” (priority 2011, published 2015)

What was measured:
rat aortic ring cultures [1] = assay: Aortic ring assay (anti-angiogenic effect); type: cell-based
rat aortic ring cultures [2] = assay: Aortic ring assay (anti-vascular model); type: cell-based; conditions: 1 μM
Method: The aortic ring assay is an ideal assay for testing the activity of anti-vascular, anti-angiogenic or pro-angiongenic agents. This method was originally developed and modified by Nicosia. The aorta can be excised from mice or rats, cut into ˜1 mm rings and cultured in either basement membrane matrix (matrigel) or collagen gel. Following incubation for several days the rings start to generate outgrowths of branching microvessels which are lined by endothelial cells and supported by pericytes and fibroblasts. The angiogenic response of the aorta is a self-limited process regulated by endogenous growth factors including bFGF [13], VEGF [14], PDGF [15] and angiopoietins.
The rat aorta model is an ex vivo assay which combines advantages of both in vitro and in vivo models. The process of angiogenesis takes place in a defined culture environment which can be easily adapted to different experimental conditions according to the requirement of the study. The cells of the aortic outgrowth have not been modified by repeated passages in culture and thus newly formed microvessels reproduce the characteristics of the vasculature formed during angiogenesis in vivo [17-18]. There is no influx of leukocytes from circulating blood therefore inflammatory complications which affect the interpretation of in vivo assays are minimised. For the purpose of this study, rat aortic ring cultures were used to investigate firstly the anti-vascular and then the anti-angiogenic activity of test compounds.
The successful growth of the aortic rings into a mircovessel network was dependent on several factors including (i) the amount of periaortic fibroadipose tissue left on the ring, (ii) the orientation of the ring, the way which the ring was embedded into the matrigel and (iii) the volume of the matrigel used.
The aortic ring assay is an ex vivo assay which allows the analyst to examine the inhibition/stimulation of angiogenesis as well as the breakdown of existing vasculature. Basement membrane matrix (matrigel) was stored at −20° C. Prior to use, matrigel vial was placed on ice and kept at 4° C. overnight in order to thaw. The matrigel was kept on ice at all times for the duration of the experiment. Aortic rings were obtained by excising the thoracic aorta of 5-10 weeks old Wistar male rats and removing the fibroadipose tissue from the aortic wall. The rings were obtained by cross-sectioning the aorta at ˜1 mm intervals, removed any blood clots by washing several times with EBM-2. Matrigel (80 μl) was placed uniformly in each well of a 12-well plate and the aortic rings were then placed individually in between the matrigel layer with the lumen perpendicular to the surface of the plate. The matrigel solution was allowed to solidify for 30-40 minutes at 37° C. and 1 ml EBM-2 medium (supplemented with 2% FBS and […] streptomycin/penicillin solution) was added to each culture. The aortic rings were kept in a humidified CO2 incubator at 37° C. and fresh medium was replaced three times a week starting from day 3. Once an established microvessel network was developed (day 7-9), test compounds diluted in EBM-2 medium (1 ml) were added to each well and incubated at 37° C. for 24 h. The cultures were monitored for microvessel breakdown over time and images were taken 1 h, 4 h and 24 h after treatment using an Olympus CKX41 inverted microscope. Images were captured with an E-330 SLR camera system and processed using Cell̂ A software. Each compound concentration was tested in duplicate. Results were presented as images showing the microvessel breakdown at each time point.

tubulin = biological target: T1, tubulin (Sus scrofa, UniProt P02550+P02554); assay: Tubulin assembly assay (tubulin binding); type: biochemical, porcine; conditions: under the assay conditions used
T1 construct: The procedure used is modified from Shelanski et al; from tissue
T1 sequence (P02550 whole entry): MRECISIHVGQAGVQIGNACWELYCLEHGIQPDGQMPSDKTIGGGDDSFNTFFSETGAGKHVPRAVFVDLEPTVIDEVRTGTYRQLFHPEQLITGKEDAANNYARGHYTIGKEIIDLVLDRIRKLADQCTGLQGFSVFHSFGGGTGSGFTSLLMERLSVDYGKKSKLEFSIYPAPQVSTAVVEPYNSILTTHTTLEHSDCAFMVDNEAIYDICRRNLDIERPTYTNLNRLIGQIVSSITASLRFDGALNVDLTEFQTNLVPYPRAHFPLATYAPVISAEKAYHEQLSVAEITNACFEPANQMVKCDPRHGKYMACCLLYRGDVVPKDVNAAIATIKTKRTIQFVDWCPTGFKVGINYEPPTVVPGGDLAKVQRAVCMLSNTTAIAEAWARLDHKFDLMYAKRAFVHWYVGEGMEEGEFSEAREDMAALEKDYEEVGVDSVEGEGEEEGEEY
T1 sequence (P02554 whole entry): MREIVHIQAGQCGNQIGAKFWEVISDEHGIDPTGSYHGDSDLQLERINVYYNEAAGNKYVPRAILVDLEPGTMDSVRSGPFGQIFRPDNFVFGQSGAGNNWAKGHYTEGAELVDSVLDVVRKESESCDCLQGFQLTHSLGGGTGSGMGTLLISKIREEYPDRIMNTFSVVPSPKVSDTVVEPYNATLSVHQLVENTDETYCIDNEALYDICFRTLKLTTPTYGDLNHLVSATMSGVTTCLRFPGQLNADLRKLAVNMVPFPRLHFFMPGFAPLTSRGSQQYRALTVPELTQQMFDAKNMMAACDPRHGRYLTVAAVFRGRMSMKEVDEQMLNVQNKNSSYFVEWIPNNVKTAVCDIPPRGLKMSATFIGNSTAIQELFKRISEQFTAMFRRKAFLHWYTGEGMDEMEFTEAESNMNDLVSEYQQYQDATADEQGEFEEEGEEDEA
Method: The buffer was prepared with deionised water and the pH of the solution was adjusted to 6.6 by the drop-wise addition of 10M aq. NaOH. The buffer was stored at 4° C. prior to use.
Equipment: A Fluostar Optima 96 well plate reader equipped with a thermostat capability.
The tubulin assembly was followed by observing an increase in optical density of a tubulin solution at 350 nm at 37° C. Typically 1 ml of tubulin solution was diluted with EB (5 ml) and GTP solution (25 μl, 5 μl per ml of EB added) to the mixture. The mixture was vortexed for ten seconds in order to ensure the homogeneity of the mixture. 100 μl of the resultant solution was pipetted into a well in the 96 well plate. The increase in optical density of the tubulin solution was measured over a time course of ten minutes at 350 nm and 37° C. […] Accordingly, adjustments were made to the quantity of buffer added in order to obtain a protein concentration within the desired range. […] Tubulin solution (1000 was subsequently pipetted into each of the same three wells. The plate was immediately incubated at 37° C. and was subjected to orbital shaking for five seconds. The UV absorption was measured at 350 nm over a time course of ten minutes. The maximum slope of the resulting curve was measured. The slope of the blank represents the maximum rate of tubulin polymerisation.

| Structure (SMILES) | anti-angiogenic effect (microvessel area) (rat aortic ring cultures [1]; 0.1 μM) | anti-angiogenic effect (microvessel density) (rat aortic ring cultures [1]; 1 μM) | anti-vascular effect on established microvessel network (rat aortic ring cultures [2]; 4 h of treatment) | anti-vascular effect on established microvessel network (rat aortic ring cultures [2]; 24 h incubation) | tubulin binding activity (in words) (tubulin) |
| --- | --- | --- | --- | --- | --- |
| COc1ccc(C2=C/C(=N/OCC(=O)NO)CCc3c2cc(OC)c(OC)c3OC)cc1N [Compound 30, 2-[9-(3-Amino-4-methoxy-phenyl)-2,3,4-trimethoxy-5,6-dihydro-benzocyclohepten-7-ylideneaminooxy]-N-hydroxy-acetamide] | negligible reduction | significantly (p<0.01) lower microvessel density | satisfactory activity | clear microvessel disruption | – |
| COc1ccc(C2=CC(=O)CCc3cc(OC)c(OC)c(OC)c32)cc1O [Compound 12, 9-(3-hydroxy-4-methoxyphenyl)-1,2,3-trimethoxy-6,7-dihydro-5H-benzo[a]cyclohepten-7-one] | – | – | – | – | inactive |
